Test results published in US20250163038A1, “CBL-B MODULATORS AND USES THEREOF” (Nimbus Clio, Inc., priority 2021, published 2025).
Like-named read-outs stand apart in the source and are kept apart here.

Experiments:
[1] = system: Jurkat (clone E6-1) cells with NFAT luciferase reporter; assay: Jurkat reporter assay (NFAT Luciferase); type: cell-based; conditions: Homo sapiens; Jurkat NFAT luciferase reporter cells, anti-CD3 stimulation, 6 hr; read-out: Jurkat NFAT EC50
[2] = target: Recombinant human Cbl-b (aa 36-427) (Homo sapiens, UniProt Q13191); assay: Cbl-b Biochemical Assay (TR-FRET)
Recombinant human Cbl-b (aa 36-427), sequence (Q13191 36-427): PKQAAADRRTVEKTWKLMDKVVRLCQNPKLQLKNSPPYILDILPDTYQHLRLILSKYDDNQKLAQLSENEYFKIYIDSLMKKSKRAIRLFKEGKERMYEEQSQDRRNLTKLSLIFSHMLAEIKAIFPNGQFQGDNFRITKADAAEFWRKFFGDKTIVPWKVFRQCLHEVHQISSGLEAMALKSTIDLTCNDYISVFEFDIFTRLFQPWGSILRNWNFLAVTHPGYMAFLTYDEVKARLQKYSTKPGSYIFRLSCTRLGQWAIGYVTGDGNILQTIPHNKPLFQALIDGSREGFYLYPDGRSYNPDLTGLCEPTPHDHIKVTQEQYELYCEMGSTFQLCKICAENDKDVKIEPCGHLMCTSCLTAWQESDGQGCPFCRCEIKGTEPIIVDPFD

[3] = target: T1, Recombinant human c-Cbl (aa 47-435) (Homo sapiens, UniProt P22681); assay: c-Cbl Biochemical Assay (TR-FRET)
T1 sequence (P22681 47-435): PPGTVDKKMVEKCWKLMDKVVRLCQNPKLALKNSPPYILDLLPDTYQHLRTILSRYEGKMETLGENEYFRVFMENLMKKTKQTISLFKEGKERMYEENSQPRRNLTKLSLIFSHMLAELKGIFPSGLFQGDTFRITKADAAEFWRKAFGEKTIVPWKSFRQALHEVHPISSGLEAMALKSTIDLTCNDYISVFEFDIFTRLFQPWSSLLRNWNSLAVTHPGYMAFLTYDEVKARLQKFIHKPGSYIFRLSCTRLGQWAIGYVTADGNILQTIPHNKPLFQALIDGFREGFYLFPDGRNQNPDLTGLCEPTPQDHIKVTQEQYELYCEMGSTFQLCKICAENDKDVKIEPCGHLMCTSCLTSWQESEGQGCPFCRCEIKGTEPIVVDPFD

[4] = hc-Cbl Biochemical Assay (TR-FRET), read-out: TR-FRET hcCbl IC50

Compound	EC50 [1]	IC50 ([2]; read-out: TR-FRET hCbl-b IC50)	IC50 [3, 4]	IC50 [2]	IC50 [3]
COCCNCc1ccc2oc(-c3cc(-c4ccc(C#N)cc4-c4nncn4C)cc(C4CC4)n3)nc2c1 [AEN-15, 4-[2-Cyclopropyl-6-(5-{1[(2-methoxyethyl)amino]methyl}-1,3-benzoxazol-2-yl)pyridin-4-yl]-3-(4-methyl-1,2,4-triazol-3-yl)benzonitrile]	200 to 1000 nM	< 200 nM	200 to 1000 nM	–	–
Cn1cnnc1-c1cc(C#N)ccc1-c1cc(-c2nc3cc(CNCC4CCC4)ccc3o2)nc(C2CC2)c1 [AEO-1, 4-[2-(5-{[(Cyclobutylmethyl)amino]methyl}-1,3-benzoxazol-2-yl)-6-cyclopropylpyridin-4-yl]-3-(4-methyl-1,2,4-triazol-3-yl)benzonitrile]	< 200 nM	< 200 nM	< 200 nM	–	–
Cn1cnnc1-c1cc(F)ccc1-c1cc(-c2nc3cc(CO)ccc3o2)cc(C2CC2)c1 [AEP-2, {2-[5-cyclopropyl-4′-fluoro-2′-(4-methyl-1,2,4-triazol-3-yl)-[1,1′-biphenyl]-3-yl]-1,3-benzoxazol-5-yl}methanol]	1000 to 10000 nM	200 to 1000 nM	200 to 1000 nM	–	–
Cn1cnnc1-c1cc(F)ccc1-c1cc(-c2nc3cc(CN[C@@H]4CCC[C@@H]4O)ccc3o2)cc(C2CC2)c1 [AEQ-2, (1S,2R)-2-[({2-[5-Cyclopropyl-4′-fluoro-2′-(4-methyl-1,2,4-triazol-3-yl)-[1,1′-biphenyl]-3-yl]-1,3-benzoxazol-5-yl}methyl)amino]cyclopentan-1-ol]	< 200 nM	< 200 nM	< 200 nM	–	–
Cn1cnnc1-c1cc(Cl)ccc1-c1ccnc(-c2nc3cc(CN[C@@H]4CCC[C@@H]4O)cc(C(F)(F)F)c3o2)c1 [AER-8, (1S,2R)-2-(((2-(4-(4-Chloro-2-(4-methyl-4H-1,2,4-triazol-3-yl)phenyl)pyridin-2-yl)-7-(trifluoromethyl)benzo[d]oxazol-5-yl)methyl)amino)cyclopentan-1-ol]	< 200 nM	< 200 nM	< 200 nM	–	–
Cc1cc(CO)cc2nc(-c3cc(-c4ccc(F)cc4-c4nncn4C)cc(C4CC4)n3)oc12 [AET-1, (2-{6-Cyclopropyl-4-[4-fluoro-2-(4-methyl-1,2,4-triazol-3-yl)phenyl]pyridin-2-yl}-7-methyl-1,3-benzoxazol-5-yl)methanol]	1000 to 10000 nM	200 to 1000 nM	1000 to 10000 nM	–	–
Cc1cc(CN[C@@H]2CCC[C@@H]2O)cc2nc(-c3cc(-c4ccc(F)cc4-c4nncn4C)cc(C4CC4)n3)oc12 [AEU-2, (1S,2R)-2-{[(2-{6-Cyclopropyl-4-[4-fluoro-2-(4-methyl-1,2,4-triazol-3-yl)phenyl]pyridin-2-yl}-7-methyl-1,3-benzoxazol-5-yl)methyl]amino}cyclopentan-1-ol]	< 200 nM	< 200 nM	< 200 nM	–	–
Cc1cc(CNCC2(O)CCC2)cc2nc(-c3cc(-c4ccc(F)cc4-c4nncn4C)cc(C4CC4)n3)oc12 [AEV-1, 1-({[(2-{6-Cyclopropyl-4-[4-fluoro-2-(4-methyl-1,2,4-triazol-3-yl)phenyl]pyridin-2-yl}-7-methyl-1,3-benzoxazol-5-yl)methyl]amino}methyl)cyclobutan-1-ol]	< 200 nM	< 200 nM	< 200 nM	–	–
CN(Cc1cc(C(F)(F)F)c2oc(-c3cc(-c4ccc(F)cc4-c4nncn4C)cc(C4CC4)n3)nc2c1)[C@@H]1CCC[C@@H]1O [AEW-1, (1S, 2R)-2-{1[(2-{6-Cyclopropyl-4-[4-fluoro-2-(4-methyl-1,2,4-triazol-3-yl)phenyl]pyridin-2-yl}-7-(trifluoromethyl)-1,3-benzoxazol-5-yl)methyl](methyl)amino}cyclopentan-1-ol]	< 200 nM	< 200 nM	< 200 nM	–	–
COc1cc(CO)cc2nc(-c3cc(-c4ccc(F)cc4-c4nncn4C)cc(C4CC4)n3)oc12 [AEX-2, (2-{6-Cyclopropyl-4-[4-fluoro-2-(4-methyl-1,2,4-triazol-3-yl)phenyl]pyridin-2-yl}-7-methoxy-1,3-benzoxazol-5-yl)methanol]	1000 to 10000 nM	200 to 1000 nM	1000 to 10000 nM	–	–
COc1cc(CN[C@@H]2CCC[C@@H]2O)cc2nc(-c3cc(-c4ccc(F)cc4-c4nncn4C)cc(C4CC4)n3)oc12 [AEY-2]	< 200 nM	< 200 nM	< 200 nM	–	–
COCCNCc1cc(C)c2oc(-c3cc(-c4ccc(F)cc4-c4nncn4C)cc(C4CC4)n3)nc2c1 [AEZ-1, [(2-{6-Cyclopropyl-4-[4-fluoro-2-(4-methyl-1,2,4-triazol-3-yl)phenyl]pyridin-2-yl}-7-methyl-1,3-benzoxazol-5-yl)methyl](2-methoxyethyl)amine]	< 200 nM	< 200 nM	< 200 nM	–	–
Cn1cnnc1-c1cc(F)ccc1-c1cccc(-c2nc3cc(CN4CC(C)(O)C4)cc(C(F)(F)F)c3o2)c1 [AF-2, 1-((2-(4′-Fluoro-2′-(4-methyl-4H-1,2,4-triazol-3-yl)-[1,1′-biphenyl]-3-yl)-7-(trifluoromethyl)benzo[d]oxazol-5-yl)methyl)-3-methylazetidin-3-ol]	200 to 1000 nM	< 200 nM	1000 to 10000 nM	–	–
Cn1cnnc1-c1cc(F)ccc1-c1cc(-c2nc3cc(CO)cc(F)c3o2)nc(C2CC2)c1 [AFA-2, (2-{6-Cyclopropyl-4-[4-fluoro-2-(4-methyl-1,2,4-triazol-3-yl)phenyl]pyridin-2-yl}-7-fluoro-1,3-benzoxazol-5-yl)methanol]	1000 to 10000 nM	200 to 1000 nM	200 to 1000 nM	–	–
Cn1cnnc1-c1cc(F)ccc1-c1cc(-c2nc3cc(CN[C@@H]4CCC[C@@H]4O)cc(F)c3o2)nc(C2CC2)c1 [AFB-2, (1S,2R)-2-{[(2-{6-Cyclopropyl-4-[4-fluoro-2-(4-methyl-1,2,4-triazol-3-yl)phenyl]pyridin-2-yl}-7-fluoro-1,3-benzoxazol-5-yl)methyl]amino}cyclopentan-1-ol]	< 200 nM	–	–	< 200 nM	< 200 nM
Cn1cnnc1-c1cc(F)ccc1-c1cc(-c2nc3cc(CNCC4(O)CCC4)ccc3o2)nc(C2CC2)c1 [AFC-1, 1-({[(2-{6-Cyclopropyl-4-[4-fluoro-2-(4-methyl-1,2,4-triazol-3-yl)phenyl]pyridin-2-yl}-1,3-benzoxazol-5-yl)methyl]amino}methyl)cyclobutan-1-ol]	< 200 nM	< 200 nM	< 200 nM	–	–
Cn1cnnc1-c1cc(F)ccc1-c1cc(-c2nc3cc(CNCC(C)(C)O)ccc3o2)nc(C2CC2)c1 [AFD-1, 1-{[(2-{6-Cyclopropyl-4-[4-fluoro-2-(4-methyl-1,2,4-triazol-3-yl)phenyl]pyridin-2-yl}-1,3-benzoxazol-5-yl)methyl]amino}-2-methylpropan-2-ol]	< 200 nM	< 200 nM	< 200 nM	–	–
Cn1cnnc1-c1cc(F)ccc1-c1cc(-c2nc3cc(CNCC4(O)CCCC4)ccc3o2)nc(C2CC2)c1 [AFE-1, 1-({[(2-{6-Cyclopropyl-4-[4-fluoro-2-(4-methyl-1,2,4-triazol-3-yl)phenyl]pyridin-2-yl}-1,3-benzoxazol-5-yl)methyl]amino}methyl)cyclopentan-1-ol]	< 200 nM	< 200 nM	< 200 nM	–	–
Cc1cc(CNCC2CCC2)cc2nc(-c3cc(-c4ccc(F)cc4-c4nncn4C)cc(C4CC4)n3)oc12 [AFF-1, 1-Cyclobutyl-N-((2-(6-cyclopropyl-4-(4-fluoro-2-(4-methyl-4H-1,2,4-triazol-3-yl)phenyl)pyridin-2-yl)-7-methylbenzo[d]oxazol-5-yl)methyl)methanamine]	< 200 nM	< 200 nM	< 200 nM	–	–
Cc1cc(CN(C)[C@@H]2CCC[C@@H]2O)cc2nc(-c3cc(-c4ccc(F)cc4-c4nncn4C)cc(C4CC4)n3)oc12 [AFG-1, (1S,2R)-2-(((2-(6-Cyclopropyl-4-(4-fluoro-2-(4-methyl-4H-1,2,4-triazol-3-yl)phenyl)pyridin-2-yl)-7-methylbenzo[d]oxazol-5-yl)methyl)(methyl)amino)cyclopentan-1-ol]	< 200 nM	–	–	< 200 nM	< 200 nM
Cc1cc(CN(C)CC2(O)CCC2)cc2nc(-c3cc(-c4ccc(F)cc4-c4nncn4C)cc(C4CC4)n3)oc12 [AFH-2, 1-({[(2-{6-Cyclopropyl-4-[4-fluoro-2-(4-methyl-1,2,4-triazol-3-yl)phenyl]pyridin-2-yl}-7-methyl-1,3-benzoxazol-5-yl)methyl](methyl)amino}methyl)cyclobutan-1-ol]	200 to 1000 nM	< 200 nM	200 to 1000 nM	–	–
Cn1cnnc1-c1cc(F)ccc1-c1cc(-c2nc3cc(CNCC4(O)CCC4)cc(F)c3o2)nc(C2CC2)c1 [AFI-1, 1-({[(2-{6-Cyclopropyl-4-[4-fluoro-2-(4-methyl-1,2,4-triazol-3-yl)phenyl]pyridin-2-yl}-7-fluoro-1,3-benzoxazol-5-yl)methyl]amino}methyl)cyclobutan-1-ol]	< 200 nM	< 200 nM	< 200 nM	–	–
Cn1cnnc1-c1cc(F)ccc1-c1cc(-c2nc3cc(CNCC4(F)CCC4)cc(F)c3o2)nc(C2CC2)c1 [AFJ-1, [(2-{6-Cyclopropyl-4-[4-fluoro-2-(4-methyl-1,2,4-triazol-3-yl)phenyl]pyridin-2-yl}-7-fluoro-1,3-benzoxazol-5-yl)methyl][(1-fluorocyclobutyl)methyl]amine]	200 to 1000 nM	< 200 nM	< 200 nM	–	–
